According to patent US10669272B2, “Substituted naphthyridinone compounds useful as T cell activators” (BRISTOL-MYERS SQUIBB COMPANY, priority 2018, dated 2020):
Where two headings read alike, the source gives them in different places.

How the values were obtained:
[1] = system: Human venous whole blood; assay: Human whole blood IFN-γ assay; assay type: cell-based; conditions: human whole blood, read-out: INFg Whole Blood Normalized Agonist EC50;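 note: blood from healthy donors exposed to compound for 1 h before stimulation with anti-CD3 and anti-CD28 at 1 µg/mL each, IFN-γ quantified in supernatant by AlphaLISA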
[2] = target: T1, human DGKα (Homo sapiens, UniProt P23743); assay: DGKα LIPGLO assay (extruded liposome substrate), in vitro DGK inhibition; assay type: biochemical; conditions: read-out: DGKa LIPGLO IC50
T1 construct: TVMV protease cleavage site (C); Hexa-His (C); made in house; host or cells: Sf9 insect cells (baculovirus, Bac-to-Bac)

[3] = target: T2, human DGKζ (Homo sapiens, UniProt Q13574); assay: DGKζ LIPGLO assay (extruded liposome substrate), in vitro DGK inhibition; assay type: biochemical; conditions: read-out: DGKz LIPGLO IC50
T2 construct: TVMV protease cleavage site (C); Hexa-His (C); made in house; host or cells: Sf9 insect cells (baculovirus, Bac-to-Bac)

[4] = normalized to 3 μM reference compound with anti-CD3 plus anti-CD28 as 100% activation
[5] = Homo sapiens, 24 h, normalized to 3 μM reference compound with anti-CD3 plus anti-CD28 as 100% activation
[6] = anti-CD3 plus anti-CD28, 24 hours, 3 μM reference compound = 100% activation
[7] = Homo sapiens, 24 h, anti-CD3 plus anti-CD28, 24 hours, 3 μM reference compound = 100% activation

T2 sequence (Q13574 with tags, fused parts or gaps isoform Q13574-4): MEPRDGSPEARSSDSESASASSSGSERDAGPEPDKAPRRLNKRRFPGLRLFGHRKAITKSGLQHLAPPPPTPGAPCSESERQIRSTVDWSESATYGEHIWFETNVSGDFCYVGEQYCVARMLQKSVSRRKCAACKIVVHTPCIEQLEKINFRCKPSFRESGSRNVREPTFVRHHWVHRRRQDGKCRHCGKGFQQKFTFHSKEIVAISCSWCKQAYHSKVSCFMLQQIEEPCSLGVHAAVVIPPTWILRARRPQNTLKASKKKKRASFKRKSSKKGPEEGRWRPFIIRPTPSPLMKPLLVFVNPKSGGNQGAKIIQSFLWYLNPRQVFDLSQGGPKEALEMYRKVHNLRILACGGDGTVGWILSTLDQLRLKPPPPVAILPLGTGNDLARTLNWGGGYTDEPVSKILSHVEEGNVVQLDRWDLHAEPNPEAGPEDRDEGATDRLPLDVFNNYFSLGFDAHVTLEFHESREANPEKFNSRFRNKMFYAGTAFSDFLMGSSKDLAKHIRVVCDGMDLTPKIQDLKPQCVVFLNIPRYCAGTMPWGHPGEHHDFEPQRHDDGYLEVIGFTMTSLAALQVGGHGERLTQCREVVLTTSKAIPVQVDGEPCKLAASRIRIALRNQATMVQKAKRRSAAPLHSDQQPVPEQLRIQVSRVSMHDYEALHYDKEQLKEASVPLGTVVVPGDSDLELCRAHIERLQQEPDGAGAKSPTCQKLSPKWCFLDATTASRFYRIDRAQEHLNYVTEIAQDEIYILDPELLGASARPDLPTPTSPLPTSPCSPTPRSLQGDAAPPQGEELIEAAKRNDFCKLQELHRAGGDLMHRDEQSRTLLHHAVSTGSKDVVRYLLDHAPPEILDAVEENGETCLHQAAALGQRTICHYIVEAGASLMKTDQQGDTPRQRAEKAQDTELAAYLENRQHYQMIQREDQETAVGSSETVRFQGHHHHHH
T1 sequence (P23743 with tags, fused parts or gaps): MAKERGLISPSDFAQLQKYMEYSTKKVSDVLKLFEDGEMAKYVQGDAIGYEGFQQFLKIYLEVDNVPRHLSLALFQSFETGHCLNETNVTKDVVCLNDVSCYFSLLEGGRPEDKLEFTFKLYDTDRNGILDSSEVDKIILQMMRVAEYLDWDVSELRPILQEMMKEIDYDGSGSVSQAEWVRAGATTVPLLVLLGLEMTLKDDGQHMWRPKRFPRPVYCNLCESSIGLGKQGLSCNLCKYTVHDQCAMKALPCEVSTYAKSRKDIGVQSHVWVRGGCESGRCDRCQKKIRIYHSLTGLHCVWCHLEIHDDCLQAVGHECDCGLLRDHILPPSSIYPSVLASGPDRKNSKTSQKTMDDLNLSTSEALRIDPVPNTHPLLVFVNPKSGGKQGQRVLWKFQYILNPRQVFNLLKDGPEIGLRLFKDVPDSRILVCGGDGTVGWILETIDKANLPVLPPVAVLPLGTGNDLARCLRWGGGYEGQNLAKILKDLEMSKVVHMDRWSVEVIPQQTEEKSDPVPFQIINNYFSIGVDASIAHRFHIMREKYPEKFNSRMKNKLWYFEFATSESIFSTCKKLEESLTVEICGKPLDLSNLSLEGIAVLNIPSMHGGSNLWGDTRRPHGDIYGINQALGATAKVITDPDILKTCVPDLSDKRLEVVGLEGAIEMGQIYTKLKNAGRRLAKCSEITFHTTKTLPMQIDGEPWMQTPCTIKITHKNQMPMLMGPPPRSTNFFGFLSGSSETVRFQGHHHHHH

| IC50 ([2]; liposome (LIPGLO) assay) [nM] | IC50 ([3]; liposome (LIPGLO) assay) [nM] | IC50 ([2]; DGKα liposome (LIPGLO) assay) [nM] | IC50 ([3]; DGKζ liposome (LIPGLO) assay) [nM] | SMILES | EC50 [1, 4] [nM] | EC50 [1, 5] [nM] | EC50 [1, 6] [nM] | EC50 [1, 7] [nM] |
| --- | --- | --- | --- | --- | --- | --- | --- | --- |
| 470 | 23000 |  |  | C[C@@H]1CN(c2cc(=O)n(C)c3ccc(C#N)nc23)[C@@H](C)CN1C(c1ccccn1)c1ccc(F)cc1F (single isomer, unassigned) [Example 683] | 1500 |  |  |  |
| 8000 | 4100 |  |  | C[C@@H]1CN(c2cc(=O)n(C)c3ccc(C#N)nc23)[C@@H](C)CN1C(c1ccc(F)cc1)c1ccc(P(C)(C)=O)cc1 (single isomer, unassigned) [Example 1292] |  | 12000 |  |  |
|  |  | 340 | 700 | Cc1ccc(C(c2ccc(F)cn2)N2CCN(c3c(C#N)c(=O)n(C)c4ccc(C#N)nc34)C[C@H]2C)cc1 (stereo partly drawn) [Example 898] |  |  | 480 |  |
|  |  | 3000 | 1200 | CCc1ccc(C(c2ccc(F)cc2)N2CCN(c3c(C#N)c(=O)n(C)c4ccc(C#N)nc34)C[C@H]2C)cc1 (stereo partly drawn) [Example 885] |  |  | 2400 |  |
| 1600 | 7100 |  |  | C[C@@H]1CN(c2cc(=O)n(C)c3ccc(C#N)nc23)[C@@H](C)CN1C(c1ccc(F)cc1)c1cncnc1 (single isomer, unassigned) [Example 393] | 3500 |  |  |  |
|  |  | 9300 | 2600 | CCc1ccc(C(c2ccc(F)cc2)N2C[C@H](C)N(c3c(C#N)c(=O)n(C)c4ccc(C#N)nc34)C[C@H]2C)cc1 (single isomer, unassigned) [Example 811] |  |  |  | 2100 |
| 1200 | 4700 |  |  | CC[C@H]1CN(C(c2ccc(F)cc2)c2ccc(C#N)cc2)[C@H](C)CN1c1cc(=O)n(C)c2ccc(C#N)nc12 (stereo partly drawn) [Example 1123] |  | 2600 |  |  |
|  |  | 250 | 2600 | C[C@@H]1CN(c2c(C#N)c(=O)n(C)c3ccc(C#N)nc23)CCN1C(c1ccc(F)cc1)c1ccc(F)cn1 (stereo partly drawn) [Example 902] |  |  | 2200 |  |
| 1800 | 28000 |  |  | [2H]C(CC)(c1ccc(F)cc1)N1C[C@H](C)N(c2cc(=O)n(C)c3ccc(C#N)nc23)C[C@H]1C (single isomer, unassigned) [Example 574] | 7300 |  |  |  |
|  |  | 4200 | 16000 | C[C@@H]1CN(c2c(C#N)c(=O)n(C)c3ccc(C#N)nc23)[C@@H](C)CN1C(c1ccc(F)cc1)c1ccc(F)cn1 (stereo partly drawn) [Example 828] |  |  | 2700 |  |
|  |  | 780 | 7500 | CC(c1ccc(F)c(F)c1)N1CCN(c2c(C#N)c(=O)n(C)c3ccc(C#N)nc23)C[C@H]1C (stereo partly drawn) [Example 956] |  |  |  | 4000 |
|  |  | 44 | 640 | C[C@@H]1CN(c2cc(=O)n(C)c3ccc(C#N)nc23)[C@@H](C)CN1C(c1ccc(F)cc1)c1cc(C2CC2)on1 (single isomer, unassigned) [Example 730] |  |  |  | 870 |
| 4500 | 560 |  |  | CC(C)Oc1ccc(C(c2cccc(F)c2)N2C[C@H](C)N(c3cc(=O)n(C)c4ccc(C#N)nc34)C[C@H]2C)nc1 (stereo partly drawn) [Example 691] | 2700 |  |  |  |
| 33 | 120 |  |  | CC[C@H]1CN(C(c2ccc(F)cc2)c2ccon2)[C@H](CC)CN1c1cc(=O)n(C)c2ccc(C#N)nc12 (single isomer, unassigned) [Example 1073] | 210 |  |  |  |
| 49 | 290 |  |  | CC[C@H]1CN(C(c2ccc(F)cc2)c2ccccn2)[C@H](CC)CN1c1cc(=O)n(C)c2ccc(C#N)nc12 (single isomer, unassigned) [Example 1043] |  | 390 |  |  |
|  |  | 2400 | 510 | CCc1ccccc1C(c1ccc(F)cc1)N1CCN(c2c(C#N)c(=O)n(C)c3ccc(C#N)nc23)C[C@H]1C (stereo partly drawn) [Example 876] |  |  | 2200 |  |
| 350 | 240 |  |  | CC[C@@H]1CN(c2cc(=O)n(C)c3ccc(C#N)nc23)[C@@H](C)CN1C(c1ccc(F)cc1)c1ccc(Cl)cc1 (stereo partly drawn) [Example 1101] | 230 |  |  |  |
| 1400 | 310 |  |  | COc1ccc(C(c2ccc(F)cc2)N2C[C@H](C)N(c3cc(=O)n(C)c4ccc(C#N)nc34)C[C@H]2C)cc1 (stereo partly drawn) [Example 659] | 17000 |  |  |  |
|  |  | 5300 | 3000 | C[C@@H]1CN(c2c(C#N)c(=O)n(C)c3ccc(C#N)nc23)CCN1C(c1ccc(F)cc1)c1cccc(F)c1 (stereo partly drawn) [Example 881] |  |  | 2100 |  |
|  |  | 2600 | 3100 | Cc1cccc(C(c2ccc(F)cc2)N2C[C@H](C)N(c3c(C#N)c(=O)n(C)c4ccc(C#N)nc34)C[C@H]2C)n1 (stereo partly drawn) [Example 816] |  |  | 1100 |  |

More lines, now with the values behind:

| SMILES | IC50 ([2]; liposome (LIPGLO) assay) [nM] | IC50 ([3]; liposome (LIPGLO) assay) [nM] | IC50 ([2]; DGKα liposome (LIPGLO) assay) [nM] | IC50 ([3]; DGKζ liposome (LIPGLO) assay) [nM] | EC50 [1, 4] [nM] | EC50 [1, 5] [nM] | EC50 [1, 6] [nM] | EC50 [1, 7] [nM] |
| --- | --- | --- | --- | --- | --- | --- | --- | --- |
| CC[C@@H]1CN(c2cc(=O)n(C)c3ccc(C#N)nc23)[C@@H](C)CN1C(C)c1ccc(OC(C)C)cc1 (single isomer, unassigned) [Example 1348] | 110 | 15 |  |  | 29 |  |  |  |
| C[C@@H]1CN(c2cc(=O)n(C)c3ccc(C#N)nc23)[C@@H](C)CN1Cc1ccc(C2(C#N)CC2)cc1 [Example 567] | 2800 | 18000 |  |  |  | 20000 |  |  |
| CC[C@H]1CN(Cc2ccc3c(c2)OC(F)(F)O3)[C@H](COC)CN1c1cc(=O)n(C)c2ccc(C#N)nc12 [Example 1407] | 7100 | 350 |  |  |  | 4400 |  |  |
| CCC(c1ccc(OC(C)(C)C)cc1)N1C[C@H](C)N(c2cc(=O)n(C)c3ccc(C#N)nc23)C[C@H]1C (single isomer, unassigned) [Example 1443] | 56 | 240 |  |  |  | 810 |  |  |
| CC[C@H]1CN(C(C)c2ccc(C(F)(F)F)cc2)[C@H](C)CN1c1cc(=O)n(C)c2ccc(C#N)nc12 (single isomer, unassigned) [Example 1143] | 1400 | 13000 |  |  | 4000 |  |  |  |
| COCCOC[C@@H]1CN(c2cc(=O)n(C)c3ccc(C#N)nc23)[C@@H](C)CN1C(C)c1ccc(OC(F)(F)F)cc1 (single isomer, unassigned) [Example 1406] | 2700 | 950 |  |  |  | 12000 |  |  |
| CCC(c1ccc(OC(F)(F)F)cc1)N1C[C@H](C)N(c2cc(=O)n(C)c3ccc(C#N)nc23)C[C@H]1CC (single isomer, unassigned) [Example 1199] | 20 | 37 |  |  | 34 |  |  |  |
| CC(c1ccc(C#N)cc1F)N1C[C@H](C)N(c2cc(=O)n(C)c3ccc(C#N)nc23)C[C@H]1C (single isomer, unassigned) [Example 1227] | 51 | 110 |  |  | 670 |  |  |  |
| CC(c1ccc(C2CC2)cc1F)N1C[C@H](C)N(c2cc(=O)n(C)c3ccc(C#N)nc23)C[C@H]1C (single isomer, unassigned) [Example 1201] | 13000 | 3400 |  |  |  | 5600 |  |  |
| C[C@@H]1CN(Cc2c(F)cc(F)cc2F)[C@@H](CO)CN1c1cc(=O)n(C)c2ccc(C#N)nc12 [Example 1182] | 34000 | 1200 |  |  |  | 20000 |  |  |
| CC[C@H]1CN(C(C)c2ccc(OC(F)F)cc2)[C@H](CC)CN1c1cc(=O)n(C)c2ccc(C#N)nc12 (single isomer, unassigned) [Example 1373] | 9.5 | 32 |  |  | 95 |  |  |  |
| CC(c1cc(C2CC2)on1)N1C[C@H](C)N(c2cc(=O)n(C)c3ccc(C#N)nc23)C[C@H]1C (single isomer, unassigned) [Example 1282] | 1400 | 2100 |  |  | 5200 |  |  |  |
| C[C@@H]1CN(c2cc(=O)n(C)c3ccc(C#N)nc23)[C@@H](C)CN1C(c1ccccc1)c1ccc(Cl)cc1 (single isomer, unassigned) [Example 670] | 1100 | 3600 |  |  | 2800 |  |  |  |
| C[C@@H]1CN(c2cc(=O)n(C)c3ccc(C#N)nc23)[C@@H](C)CN1Cc1ccc(P(C)(C)=O)cc1 [Example 1289] | 51000 | 130000 |  |  |  | 20000 |  |  |
| CC(c1cccc(C(F)F)n1)N1C[C@H](C)N(c2cc(=O)n(C)c3ccc(C#N)nc23)C[C@H]1C (stereo partly drawn) [Example 1222] | 16 | 110 |  |  |  | 520 |  |  |
| CC[C@H]1CN(C(C)c2ccc(OC(F)(F)F)cc2)[C@H](CC)CN1c1cc(=O)n(C)c2ccc(C#N)nc12 (single isomer, unassigned) [Example 1054] | 470 | 590 |  |  | 2700 |  |  |  |
| CC[C@@H]1CN(c2cc(=O)n(C)c3ccc(C#N)nc23)[C@@H](C)CN1Cc1ccc(F)cc1 [Example 1079] | 28 | 89 |  |  |  | 650 |  |  |
| CC[C@@H]1CN(c2cc(=O)n(C)c3ccc(C#N)nc23)[C@@H](C)CN1C(C)c1ccc(C(F)(F)F)cc1 (single isomer, unassigned) [Example 1093] | 250 | 180 |  |  |  | 130 |  |  |
| CC(=O)N1CC(c2noc(C(c3ccc(F)cc3)N3C[C@H](C)N(c4cc(=O)n(C)c5ccc(C#N)nc45)C[C@H]3C)n2)C1 (single isomer, unassigned) [Example 1296] | 2400 | 5000 |  |  |  | 20000 |  |  |
| COc1cc(C(C)N2C[C@H](C)N(c3cc(=O)n(C)c4ccc(C#N)nc34)C[C@H]2C)ccc1F (single isomer, unassigned) [Example 1231] | 3800 | 110 |  |  | 1200 |  |  |  |
